# Assay results as given in patent US20050209157A1, “Short bioactive peptides and methods for their use” (priority 2001, published 2005).
# No end group written: not given here.
# How the values were obtained:
# [1] = tested on: Escherichia coli ATCC 25922; test: Antimicrobial assay I, modified protocol (tryptic soy broth), MBC; conditions: minimum bactericidal concentration, Table 4
# Description: (§6) The preparation of all media, stock solutions, and dilutions took place in a laminar flow hood to prevent contamination. Bacterial cells were freshly grown on antibiotic medium 2 agar slants (pH 7.0 at 25° C.). Bacteria were suspended and diluted in antibiotic medium 3 to about 10^4 cfu/ml and used as the inoculum. Sample solutions (100 μl/well) were added to plates according to the plate layout. Inoculum (100 μl/well) was added to achieve a final concentration of 5×10^3 cfu/ml. Negative controls received 100 μl saline and 100 μl growth medium. Positive controls received 100 μl saline and 100 μl inoculum. Bacterial plates were incubated at 37° C. for 24 hours.
# (§7) However, the data for Table 4 were obtained with a modified protocol wherein the medium was tryptic soy broth, inocolum strength was approximately 10^4 CFU per ml, and values determined were minimum bactericidal concentrations (MBC) or minimum fungicidal concentrations (MFC).
# (§8) MBC or MFC values are in μg/mL. E. coli is Escherichia coli ATCC accession number 25922; P. aerug is Pseudomonas aeruginosa ATCC accession number 27853, S. aur. is Stapholococcus aureus ATCC accession number 25923; Candida is Candida albicans ATCC accession number 10231.
# [2] = tested on: Pseudomonas aeruginosa ATCC 27853; test: as above; conditions: minimum bactericidal concentration, Table 4
# [3] = tested on: Stapholococcus aureus ATCC 25923; test: as above; conditions: minimum bactericidal concentration, Table 4
# Description: as §6, §7, §8
# WI38 = conditions: MTT, 24 hours with peptide; normal fibroblast line
# in vitro [4] = conditions: human, WI38 normal lung fibroblast cells, LD50 WI38, WI38 normal lung fibroblast line, MTT, 24 hours with peptide
# [5] = tested on: Staphylococcus aureus ATCC 6538; test: Antimicrobial assay I, MIC by OD measurement; format: cell-based; conditions: 37° C. for 24 hours, absorbance 620 nm
# Description: (§1) The data for the following antimicrobial assay of the peptides have been obtained by making OD measurements in in vitro cell culture experiments with and without added peptide. The protocol used is as follows.
# (§2) Cell lines included Staphylococcus aureus ATCC 6538 or 25923, Pseudomonas aeruginosa ATCC 9027 or 27853. Medium used were Antibiotic Medium 3 (Difco), Antibiotic Medium 2 (Difco), and 0.85% saline. Controls used were physiological saline, and gentamycin at 50, 25, 10, 5, 1, and 0.1 ppm.
# (§3) Absorbance was read at 620 nm after shaking to resuspend cells.
# (§4) Staph6538 is Staphylococcus aureus ATCC accession number 6538; paerug9027 is Pseudomonas aeruginosa ATCC accession number 9027, yeast is Saccharomyces cerevisiae.
# [6] = tested on: Pseudomonas aeruginosa ATCC 9027; test: Antimicrobial assay I, MIC by OD measurement; format: cell-based; conditions: 37° C. for 24 hours, absorbance 620 nm
# Description: as §1, §2, §3, §4
# P. aeruginosa H374 = format: cell-based, Pseudomonas aeruginosa
# Description: The synergistic effects of the inventive peptides with either chloramphenicol or nalidixic acid against efflux mutants of Pseudomonas aeruginosa were investigated. The MIC values were determined for either nalidixic acid or chloramphenicol alone as baselines. Peptides were added at their ¼ MIC concentration, and the concentration of either nalidixic acid or chloramphenicol to arrive at the MIC was determined. […] The fractional inhibitory concentration (FIC) index was used to determine synergy between peptides and antibiotics. Two-fold serial dilutions of antibiotic were tested in the presence of a constant amount of peptide, equal to one quarter of peptide MIC. The FIC index was determined as follows: FIC=0.25+MICantibiotic in combination/MICantibiotic alone. An FIC index of 0.5 or less is considered as synergy.
# SW480 = test: Anti-cancer assay, MTT, LD50; format: cell-based; conditions: SW480 colon adenocarcinoma line, 24 hours with peptide
# Description: (§5) Numbers are LD50 values (μg/mL).
# PC3 = test: Anti-cancer assay, MTT, LD50; format: cell-based; conditions: 24 hours with peptide, prostate adenocarcinoma
# Description: as §5
# BMKC = test: Anti-cancer assay, MTT, LD50; format: cell-based; conditions: BMKC cloned melanoma line, 24 hours with peptide
# Description: as §5
# HeLaS3 = test: Anti-cancer assay, MTT, LD50; format: cell-based; conditions: 24 hours with peptide, cervical carcinoma
# Description: as §5
# H1299 = test: Anti-cancer assay, MTT, LD50; format: cell-based; conditions: 24 hours with peptide, lung large cell carcinoma
# Description: as §5
# MCF7 = test: Anti-cancer assay, MTT, LD50; format: cell-based; conditions: MCF7 breast adenocarcinoma line, MTT, 24 hours with peptide
# Description: as §5
# [7] = tested on: yeast (Saccharomyces cerevisiae); test: Antimicrobial assay I, yeast assay in RPMI 1640; format: cell-based; conditions: RPMI 1640 media
# Description: as §1, §3
# The yeast assay was performed in RPMI 1640 media (pH 7.0 at 25° C.).
# as §4
# in vitro [8] = format: cell-based, human; conditions: human, human red blood cells, pH 7, hemolytic assay, concentration at 50% hemolysis, 1 hour at 37° C.; read-out: LD50
Molecule,MBC E. coli A.25922 [1],MBC P. aerug A.27853 [2],MBC S. aur A.25923 [3],WI38 LD50 (WI38),CC50 at 24 h (in vitro [4]),staph6538 (MIC) [5],paerug9027 (MIC) [6],MIC Cm-comb. (P. aeruginosa H374; MIC of chloramphenicol with peptide at ¼ MIC),"FIC Index (P. aeruginosa H374; chloramphenicol + peptide at ¼ MIC, 0.5 or less = synergy)",LD50 SW480 (SW480),PC3 LD50 (PC3),LD50 BMKC (BMKC),HeLaS3 LD50 (HeLaS3),H1299 LD50 (H1299),LD50 MCF7 (MCF7),yeast (MIC or MFC) [7],HC50 at 1 h (in vitro [8])
CC[C@H](C)[C@H](NC(=O)CNC(=O)[C@H](CC(N)=O)NC(=O)[C@H](CCCNC(=N)N)NC(=O)[C@@H](NC(=O)[C@H](CC(N)=O)NC(=O)[C@H](CCCNC(=N)N)NC(=O)CNC(=O)[C@@H](NC(=O)[C@H](CCCCN)NC(=O)[C@H](CCC(=O)O)NC(=O)[C@@H](NC(=O)[C@H](CCCCN)NC(=O)[C@H](CCCCN)NC(=O)[C@H](Cc1ccccc1)NC(=O)[C@@H](NC(=O)[C@H](CCCCN)NC(=O)[C@H](Cc1c[nH]c2ccccc12)NC(=O)[C@H](CCCCN)NC(=O)[C@@H]1CCCN1C(=O)[C@@H](N)CCSC)C(C)C)[C@@H](C)CC)C(C)C)[C@@H](C)CC)C(=O)N[C@H](C(=O)N[C@@H](CCCCN)C(=O)N[C@@H](C)C(=O)NCC(=O)N1CCC[C@H]1C(=O)N[C@@H](C)C(=O)N[C@H](C(=O)N[C@@H](C)C(=O)N[C@H](C(=O)N[C@@H](CC(C)C)C(=O)NCC(=O)N[C@@H](CCC(=O)O)C(=O)N[C@@H](C)C(=O)N[C@@H](CCCCN)C(=O)N[C@@H](C)C(=O)N[C@@H](CC(C)C)C(=O)NCC(N)=O)C(C)C)[C@@H](C)CC)C(C)C [compound 12],50 µg/mL,>60 µg/mL,75 µg/mL,–,–,–,–,–,–,–,–,–,–,–,–,–,–
FAKLLAKFLKKAL-NH2 [P113],–,–,–,170 µg/mL,170 µg/mL,10 µg/mL,200 µg/mL,16 µg/mL,1.25,180 µg/mL,240 µg/mL,115 µg/mL,190 µg/mL,50 µg/mL,150 µg/mL,200 µg/mL,1000 µg/mL
CC(C)C[C@H](NC(=O)[C@H](C)NC(=O)[C@H](CCCCN)NC(=O)[C@H](CCCCN)NC(=O)[C@H](C)NC(=O)[C@H](CCCCN)NC(=O)[C@H](CCCCN)NC(=O)[C@H](CC(C)C)NC(=O)[C@H](C)NC(=O)[C@H](CCCCN)NC(=O)[C@H](CCCCN)NC(=O)[C@H](C)NC(=O)[C@H](CC(C)C)NC(=O)[C@H](C)NC(=O)[C@@H](N)Cc1ccccc1)C(N)=O [compound 40],30 µg/mL,40 µg/mL,>40 µg/mL,–,–,–,–,–,–,–,–,–,–,–,–,–,–
CC[C@H](C)[C@H](NC(=O)CNC(=O)[C@H](CC(N)=O)NC(=O)[C@H](CCCNC(=N)N)NC(=O)[C@@H](NC(=O)[C@H](CC(N)=O)NC(=O)[C@H](CCCNC(=N)N)NC(=O)CNC(=O)[C@@H](NC(=O)[C@H](CCCCN)NC(=O)[C@H](CCC(=O)O)NC(=O)[C@@H](NC(=O)[C@H](CCCCN)NC(=O)[C@H](CCCCN)NC(=O)[C@H](Cc1ccccc1)NC(=O)[C@@H](NC(=O)[C@H](CCCCN)NC(=O)[C@H](Cc1c[nH]c2ccccc12)NC(=O)[C@H](CCCCN)NC(=O)[C@@H]1CCCN1C(=O)[C@@H](N)CCSC)C(C)C)[C@@H](C)CC)C(C)C)[C@@H](C)CC)C(=O)N[C@H](C(=O)N[C@@H](CCCCN)C(=O)N[C@@H](C)C(=O)NCC(=O)N1CCC[C@H]1C(=O)N[C@@H](C)C(=O)N[C@H](C(=O)N[C@@H](C)C(=O)N[C@H](C(=O)N[C@@H](CC(C)C)C(=O)NCC(=O)N[C@@H](CCC(=O)O)C(=O)N[C@@H](C)C(=O)N[C@@H](CCCCN)C(=O)N[C@@H](C)C(=O)N[C@@H](CC(C)C)C(=O)NCC(=O)O)C(C)C)[C@@H](C)CC)C(C)C [compound 5],50 µg/mL,>60 µg/mL,40 µg/mL,–,–,–,–,–,–,–,–,–,–,–,–,–,–
CC(C)C[C@H](NC(=O)[C@H](C)NC(=O)[C@H](CC(C)C)NC(=O)[C@H](C)NC(=O)[C@H](CCCCN)NC(=O)[C@H](CCCCN)NC(=O)[C@H](C)NC(=O)[C@H](CC(C)C)NC(=O)[C@H](CCCCN)NC(=O)[C@H](C)NC(=O)[C@H](CC(C)C)NC(=O)[C@H](CCCCN)NC(=O)[C@H](CCCCN)NC(=O)[C@H](C)NC(=O)[C@@H](N)Cc1ccccc1)C(N)=O [compound 39],>40 µg/mL,>40 µg/mL,>40 µg/mL,–,–,–,–,–,–,–,–,–,–,–,–,–,–
FAKLLAKLAKAKL-NH2 [P65],–,–,–,320 µg/mL,320 µg/mL,15 µg/mL,50 µg/mL,–,–,345 µg/mL,470 µg/mL,250 µg/mL,210 µg/mL,450 µg/mL,475 µg/mL,200 µg/mL,950 µg/mL
FAKLWAKLAFGKGIGKVGKKLL-NH2 [P135],–,–,–,110 µg/mL,110 µg/mL,15 µg/mL,10 µg/mL,–,–,80 µg/mL,310 µg/mL,155 µg/mL,215 µg/mL,115 µg/mL,54 µg/mL,50 µg/mL,900 µg/mL
KWKLAKKALALL-NH2 [P142],–,–,–,73 µg/mL,73 µg/mL,100 µg/mL,50 µg/mL,–,–,38 µg/mL,60 µg/mL,38 µg/mL,55 µg/mL,115 µg/mL,44 µg/mL,100 µg/mL,900 µg/mL
"WALAL-NH2 [P184, WALAL-NH2]",–,–,–,800 µg/mL,800 µg/mL,25 µg/mL,100 µg/mL,–,–,440 µg/mL,570 µg/mL,600 µg/mL,302 µg/mL,370 µg/mL,260 µg/mL,100 µg/mL,850 µg/mL
"FALALKLAKKAL-NH2 [P167, FALALKLAKKAL-NH2]",–,–,–,260 µg/mL,260 µg/mL,10 µg/mL,25 µg/mL,–,–,360 µg/mL,320 µg/mL,240 µg/mL,325 µg/mL,300 µg/mL,230 µg/mL,100 µg/mL,200 µg/mL
